Measured values as given in US20220267854A1, “EGFR AND ROS1 KINASE IN CANCER” (CELL SIGNALING TECHNOLOGY, INC., priority 2012, published 2022).

Legend:
FIG-ROS1(L) = FIG-ROS1(L) (Homo sapiens, UniProt P08922); assay: Western blotting, phosphorylation of FIG-ROS1(L) in BaF3 cells; assay type: cell-based
Description: (§1) All antibodies were from Cell Signaling Technology, Inc. (Danvers, Mass.)
(§2) Since ROS1, ALK, LTK, InsR, and IGFIR belong to the same family of tyrosine kinases, they may share similar structure in the kinase domain.

[1] = tested on: STAT3, AKT, ERK, Shp2 in FIG-ROS1(S) expressing BaF3 cells; assay: Western blotting, downstream signaling molecules in FIG-ROS1(S) expressing BaF3 cells; assay type: cell-based
Description: as §1, §2

[2] = tested on: STAT3, AKT, ERK, Shp2 in BaF3 cells transduced with the FLT-3ITD retrovirus; assay type: cell-based; conditions: FLT-3ITD BaF3
Description: as §1, §2

FIG-ROS1(S) = molecular target: T1, FIG-ROS1(S) (Homo sapiens, UniProt P08922); assay: Western blotting, phosphorylation of FIG-ROS1(S) in BaF3 cells; assay type: cell-based
T1 construct: expressed in transfected cells; host or cells: BaF3 cells (retroviral transduction, selected for IL3-independent growth)
Description: as §1, §2

[3] = tested on: BaF3 cells expressing FIG-ROS1(L); assay: MTS cell growth assay, BaF3 expressing FIG-ROS1(L); assay type: cell-based
Protocol: (§3) BaF3 and Karpas 299 cells were obtained from DSMZ (Deutsche Sammlung von Mikroorganismen und Zellkulturen GmbH, Germany). BaF3 cells, which need interleukin-3 to survive, were maintained at 37° C. in RPMI-1640 medium (Invitrogen) with 10% fetal bovine serum (FBS) (Sigma) and 1.0 ng/ml murine IL-3 (R&D Systems). Karpas 299 cells (a lymphoma cell line) were grown in RPMI-1640 with 10% FBS.
(§4) BaF3 cells were transduced with retrovirus encoding FIG-ROS1(S), FIG-ROS1(L), or FLT-31TD (the Internal tandem duplication mutation in FLT3 causes AML leukemia), and selected for IL3 independent growth. Karpas 299 cells, which express NPM-ALK, was used as a positive control. Retroviruses were generated as previously described (see PCT Publication No. WO 2010/093928, incorporated by reference).
(§5) A MTS assay was performed using the CellTiter 96 Aqueous One Solution Reagent (Promega, Catalog No G3582). […] After 72 hours, 20 μl of the CellTiter 96 Aqueous One Solution Reagent was added into each well of a 96 well assay plate (flat bottom), and then 100 μl of cells grown with or without treatment. Media-only wells were used as controls. The 96 well plate was incubated for 1-4 hours at 37° C., and then viable cells were counted by reading the absorbance at 490 nm using a 96 well plate reader.

[4] = tested on: BaF3 cells expressing FIG-ROS1(S); assay: MTS cell growth assay, BaF3 expressing FIG-ROS1(S); assay type: cell-based
Protocol: as §3, §4, §5

[5] = tested on: BaF3 cells transduced with FLT3/ITD
Protocol: as §3, §4, §5

[6] = tested on: Karpas 299 cells (express NPM-ALK); conditions: FIG. 6, 0-1000 nM, 72 hours
Protocol: as §3, §4, §5

[7] = tested on: BaF3 cells expressing FIG-ROS1(L); assay: Cleaved caspase-3 flow cytometry (apoptosis), BaF3 FIG-ROS1(L); assay type: cell-based; conditions: FIG. 7
Description: (§6) The mechanism of death of the BaF3 and Karpas 299 cells was next assessed by measuring the percentage of cleaved-caspase 3 positive cells by flow cytometry assay using cleaved caspase-3 as a marker for apoptosis.

[8] = tested on: STAT3, AKT, ERK, Shp2 in FIG-ROS1(L) expressing BaF3 cells; assay: Western blotting, downstream signaling molecules in FIG-ROS1(L) expressing BaF3 cells; assay type: cell-based
Description: as §1, §2

[9] = tested on: BaF3 cells expressing myc-tagged neomycin (Neo-Myc); assay: MTS cell growth assay, BaF3 expressing myc-tagged neomycin; assay type: cell-based; conditions: FIGS. 9A/9B; 0-1.0 uM; negative control BaF3 neo-myc
Protocol: as §3, §5

Karpas 299 cells = assay: Cleaved caspase-3 flow cytometry (apoptosis), Karpas 299; assay type: cell-based; conditions: FIG. 7
Description: as §6

[10] = tested on: BaF3 cells expressing FIG-ROS1(S); assay: Cleaved caspase-3 flow cytometry (apoptosis), BaF3 FIG-ROS1(S); assay type: cell-based; conditions: FIG. 7
Description: as §6

[11] = FIG. 8, 0, 10, 50, or 100 nM for three hours
[12] = FIGS. 9A/9B, 0-1.0 uM, same concentration of each
[13] = FIG. 10, 0, 0.1, 0.3, or 1.0 uM for three hours

Structure (SMILES): COc1cc(N2CCC(N3CCN(C)CC3)CC2)ccc1Nc1ncc(Cl)c(Nc2ccccc2S(=O)(=O)C(C)C)n1 [TAE-684]
- phosphorylation of FIG-ROS1(L) (FIG-ROS1(L); [11]): inhibited
- phosphorylation of STAT3, AKT, and ERK, and Shp2 [1, 11]: inhibited
- phosphorylation of STAT3, AKT, and ERK, and Shp2 [2, 11]: not affected
- phosphorylation of FIG-ROS1(S) (FIG-ROS1(S); [11]): inhibited
- cellular growth response ([3]; FIG. 6, 0-1000 nM, 72 hours): stopped growing
- cellular growth response, TAE-684 compared with crizotinib [3, 12]: more sensitive to TAE-684 than to crizotinib
- cellular growth response ([4]; FIG. 6, 0-1000 nM, 72 hours): stopped growing
- cellular growth response, TAE-684 compared with crizotinib [4, 12]: more sensitive to TAE-684 than to crizotinib
- cellular growth response ([5]; FIG. 6, 0-1000 nM, 72 hours, BaF3 FLT3/ITD): not susceptible
- cellular growth response, compared with FIG-ROS1 BaF3 and Karpas 299 cells ([5]; FIGS. 9A/9B, 0-1.0 uM, negative control BaF3 FLT3-ITD): less sensitive
- cellular growth response [6]: stopped growing
- mechanism of death, cleaved-caspase 3 positive cells [7]: die by apoptosis
- phosphorylation of STAT3, AKT, and ERK, and Shp2 [8, 11]: inhibited
- cellular growth response, compared with FIG-ROS1 BaF3 and Karpas 299 cells [9]: less sensitive
- mechanism of death, cleaved-caspase 3 positive cells (Karpas 299 cells): did not die by apoptosis
- mechanism of death, cleaved-caspase 3 positive cells [10]: die by apoptosis

Structure (SMILES): C[C@@H](Oc1cc(-c2cnn(C3CCNCC3)c2)cnc1N)c1c(Cl)ccc(F)c1Cl [crizotinib]
- phosphorylation of FIG-ROS1(L) (FIG-ROS1(L); [13]): inhibited
- phosphorylation of STAT3 and ERK [1, 13]: inhibited
- phosphorylation of STAT3 and ERK [2, 13]: not affected
- phosphorylation of FIG-ROS1(S) (FIG-ROS1(S); [13]): inhibited
- phosphorylation of STAT3 and ERK [8, 13]: inhibited
